Patent US20230398161A1 (priority 2020, published 2023)

How the values were obtained:
[1] = system: Escherichia coli (E. coli) strain ATCC 700928; assay: Urinary tract infection model in C3H/OuJ mice, CK570: E. coli burden (CFU) in tissues; conditions: positive control, IV, all timepoints assessed
Procedure: The vehicle used in this study was 1×TBS.
C3H/OuJ female mice, aged approximately 8 weeks and weighing 21 to 24 grams, were used in this study. Mice were housed with 1 to 5 animals per cage and were provided food (5P76 Prolab isopro irradiated lab diet) and water ad libitum.
Mice were anesthetized with 1-4% isoflurane in oxygen for 2-3 minutes until a deep plane of anesthesia was achieved, confirmed by toe pinch reflex. Each mouse was then placed on a board, ventral side up, with the nose inserted into a nose cone supplying isoflurane. The lower abdomen was gently massaged to expel any urine in the bladder. […] For IV administration, mice were manually restrained in a restrainer device, and study treatment was administered via the lateral tail vein. A dose volume of 100 μL was used for IV injections. For IU administration, the same method was used as for the original administration of E. coli. A dose volume of 50 μL was used for IU administration.
All CFU data were log-transformed.

[2] = system: 88 contemporaneous urinary tract infection (UTI) isolates; format: cell-based, E. coli; conditions: both isolate panels, Tables 18, 19
Procedure: (§1) The first assay used a panel of 88 contemporaneous urinary tract infection (UTI) isolates from North America, Europe, Latin America, and Asia. […] The second assay used a panel made up of a 300-strain clinical isolate panel (Table 14) with an additional 4 strains of interest. […] Four of the same SOC antibiotics tested against the 88-isolate panel were tested against this panel. The non-SOC antibiotics were not included due to their limited use in clinical settings, and nitrofurantoin was not included due to the low probability of resistance to this drug.
(§2) For both isolate panels, antibiotic concentrations tested were determined by using Clinical and Laboratory Standards Institute (CLSI) or European Committee on Antimicrobial Susceptibility Testing (EUCAST) breakpoints at concentrations that kill susceptible isolates but allow intermediate or resistant isolates to grow in the standard AST microdilution assay (Table 17).
(§3) The cocktail was then mixed with bacteria to obtain final titers of 1×10^6 plaque-forming unit (PFU)/mL/phage for the cocktail and 1×10^5 colony-forming unit (CFU)/mL for the bacteria, resulting in a multiplicity of infection (MOI) of 10 for each phage in a sample. […] Reactions were incubated at 37° C. with shaking and OD measurements were taken each hour for 20 hours.

[3] = system: 300-strain clinical isolate panel with an additional 4 strains; assay: Host range of CK618 and antibiotics alone and in combination, 304-isolate panel; format: cell-based, E. coli; conditions: antibiotic at concentration printed after name plus CK618
Procedure: as §1, §2, §3

Row | Molecule | bacterial burden in each tissue [1] | host range on MDR and beta-lactam-resistant strains compared with all strains (in words) [2] | host range performance on all strains (in words) [2] | Host range % on all strains (n = 304), Combination: Antibiotic + LBP-CK618 [3]
1 | O=C(O)c1cn(C2CC2)c2cc(N3CCNCC3)c(F)cc2c1=O [Ciprofloxacin] | significantly reduced bacterial burden to the LOD | – | – | –
2 | C[C@@H]1O[C@@H]1P(=O)(O)O [Fosfomycin] | – | performed similarly regardless of antibiotic resistance status | strong activity across all strains | 97.0%
3 | Trimethoprim/Sulfamethoxazole [TMP/SXT] | – | – | – | 81.9%
